Assay results reported in patent US20110313672A1, “CELLULAR ANTIOXIDANT ACTIVITY (CAA) ASSAY” (CORNELL UNIVERSITY, priority 2007, published 2011).
Where “and” joins values, the source holds several entries; their conditions need not be identical. Equal values may be shown once. Entries after “also recorded” stand apart in the source; their conditions may differ. Read-outs that look alike come from different tables or passages of the source.

Experiments:
[1] = Oxygen radical absorbance capacity (ORAC) assay; details: Example 3, flavonoids, mean ± SD, n ≧ 3
Method: The peroxyl radical scavenging efficacy of selected fruits was measured using the ORAC assay (Prior, R. L., et al (2003) J. Agric. Food Chem. 51:3273-3279). Briefly, 20 μL of blank, Trolox standard, or fruit extracts in 75 mM potassium phosphate buffer, pH 7.4 (working buffer), was added to triplicate wells in a black, clear-bottom, 96-well microplate. The triplicate samples were distributed throughout the microplate and were not placed side-by-side, to avoid any effects on readings due to location. In addition, no outside wells were used, as use of those wells results in greater variation. A volume of 200 μL of 0.96 μM fluorescein in working buffer was added to each well and incubated at 37° C. for 20 min, with intermittent shaking, before the addition of 20 μL of freshly prepared 119 mM ABAP in working buffer using a 12-channel pipetter. The microplate was immediately inserted into a Fluoroskan Ascent FL plate reader (ThermoLabsystems) at 37° C. The decay of fluorescence at 538 nm was measured with excitation at 485 nm every 4.5 min for 2.5 h. The areas under the fluorescence versus time curve for the samples minus the area under the curve for the blank were calculated and compared to a standard curve of the areas under the curve for 6.25, 12.5, 25, and 50 μM Trolox standards minus the area under the curve for blank. ORAC values were expressed as mean micromoles of Trolox equivalents (TE) per 100 g of fruit±SD for triplicate data from one experiment.
ORAC measurements were performed as described herein in Example 2.

HepG2 cells = assay: Cellular antioxidant activity (CAA) assay: inhibition of peroxyl radical-induced DCFH oxidation; type: cell-based, human; details: for CAA value: Example 1, pure compounds, EC50 converted to quercetin equivalents
Method: Cells (e.g., human hepatocellular carcinoma cells; HepG2) are seeded at a density of e.g., 6×10^4/well on a 96-well microplate in 100 μL growth medium/well. It is preferred that only the inside wells of e.g., a 96-well microplate are used for the assay, since the outer wells have increased variation compared to that of the inner wells. Twenty-four hours after seeding the growth medium is removed and the wells are washed with PBS. Triplicate wells are treated for 1 h with 100 μL of a test compound (e.g., pure phytochemical compounds or fruit extracts) plus 25 μM DCFH-DA dissolved in treatment medium.
600 μM ABAP is then applied to the cells in 100 μL HBSS and the 96-well microplate is placed into a plate reader e.g., Fluoroskan Ascent FL plate-reader (ThermoLabsystems, Franklin, Mass.) at 37° C. Emission at 538 nm is measured with excitation at 485 nm, for example every 5 min for 1 h. Each plate should include triplicate control and blank wells: control wells contain cells treated with DCFH-DA and oxidant; blank wells contain cells treated with dye and HBSS without oxidant.
A test compound is assayed in multiple wells of e.g., a 96-well cell culture plate. Some wells are washed with 100 μL of phosphate-buffered saline (PBS) prior to the addition of ABAP, while other wells were not washed prior to the addition of ABAP. It was noted that the measured antioxidant activity of some fruit extracts (e.g., blueberries) was different when a PBS wash was used compared to when there was no PBS wash (see Table 2; FIGS. 3 and 4). This is likely due to non-specific binding of certain antioxidant compounds to the outer membrane, or a reduced uptake of the compound, thus the ratio of antioxidant activity values obtained with a PBS wash compared to a non-PBS wash indicates the bioavailability of the test compound. In order to accurately measure the intracellular antioxidant activity of a test compound, a PBS wash prior to the addition of a peroxyl initiator (e.g, ABAP) is necessary. The values obtained for cells assayed using a PBS wash should be compared to values obtained for the same cells assayed without a PBS wash. One of skill in the art can plan and perform experiments on a test compound in the presence and absence of a PBS wash, in order to accurately assess the intracellular antioxidant capacity of the test compound.
After blank subtraction from the fluorescence readings, the area under the curve of fluorescence versus time is integrated to calculate the cellular antioxidant activity (CAA) value at each concentration of pure phytochemical compound or fruit extract as follows:
where ∫SA is the integrated area under the sample fluorescence versus time curve and ∫CA is the integrated area from the control curve. The median effective dose (EC50) was determined for the pure phytochemical compounds and fruit extracts from the median effect plot of log (fa/fu) vs. log (dose), where fa is the fraction affected and fu is the fraction unaffected by the treatment. To quantify intra-experimental variation, the EC50 values are stated as mean±SD for triplicate sets of data obtained from the same experiment. Inter-experimental variation is obtained for some representative pure phytochemical compounds and fruit extracts by averaging the fluorescence values from triplicate wells in each trial to obtain one EC50 value per experiment and calculating the mean±SD for at least four trials. In each experiment, a standard is used, for example quecetin, thus permitting the cellular antioxidant activities for a test compounds to be expressed as μmol quercetin equivalents (QE)/100 μmol compound. Fruit extracts are expressed as μmol QE/100 g fruit. In order to compare the antioxidant quality of different fruits, cellular antioxidant activity (CAA) is also calculated as μmol QE/100 μmol total phenolics.
Human hepatocellular carcinoma HepG2 cells were seeded at a density of 6×10^4/well on a 96-well microplate in 100 μL growth medium/well. […]

[2] = Example 3, Table 7, no PBS wash
[3] = Homo sapiens, HepG2, Example 3, Table 7, PBS wash, flavonoids, mean ± SD, n=3, read-out: EC50
[4] = Homo sapiens, HepG2, Example 3, Table 7, no PBS wash, flavonoids, mean ± SD, n=3, read-out: EC50
[5] = Homo sapiens, HepG2, Example 1, Table 1, PBS wash, pure phytochemical compounds, mean ± SD, n=3, read-out: EC50 for inhibition of peroxyl radical-induced DCFH oxidation
[6] = Homo sapiens, HepG2, Example 1, Table 1, no PBS wash, pure phytochemical compounds, mean ± SD, n=3, read-out: EC50 for inhibition of peroxyl radical-induced DCFH oxidation
[7] = CAA assay, either protocol or protocol not specified
[8] = Example 3, Table 7, PBS wash, flavonoids, mean ± SD, n=3
[9] = Example 3, Table 7, no PBS wash, flavonoids, mean ± SD, n=3

Row | SMILES | EC50 (HepG2 cells; [3]) [µM] | EC50 (HepG2 cells; [4]) [µM] | EC50 (HepG2 cells; [5]) [µM] | EC50 (HepG2 cells; [6]) [µM] | ORAC [1] | CAA (HepG2 cells; Example 3, Table 7, PBS wash) | CAA (HepG2 cells; [2]) | cellular antioxidant activity, result in words (HepG2 cells; [7]) | other results
1 | O=C(O[C@@H]1Cc2c(O)cc(O)cc2O[C@@H]1c1ccc(O)c(O)c1)c1cc(O)c(O)c(O)c1 [ECG, (−)-epicatechin gallate] | 25.6 ± 1.8 | 14.2 ± 0.4 | – | – | 7.71 ± 1.57 cde μmol of TE/μmol | 31.9 ± 2.2 μmol of QE/100 μmol | 62.1 ± 1.9 μmol of QE/100 μmol | – | –
2 | Oc1cc(O)c2c(c1)O[C@H](c1cc(O)c(O)c(O)c1)[C@H](O)C2 [EGC, (−)-epigallocatechin] | > 100 | 74.2 ± 12.9 | – | – | 3.11±0.73 μmol of TE/μmol and 3.11 ± 0.73 cde μmol of TE/μmol | – | 12.1 ± 2.2 μmol of QE/100 μmol | – | cellular antioxidant activity, result in words (HepG2 cells; PBS wash protocol): low activity at the concentrations tested
3 | O=c1cc(-c2ccc(O)c(O)c2)oc2cc(O)cc(O)c12 [Luteolin, luteolin] | 27.7 ± 2 | 23.8 | 23.1 ± 1 | 26.1 ± 0.26 | 8.55 ± 0.85 cde μmol of TE/μmol | 29.5 ± 2.1 μmol of QE/100 μmol | 37.1 ± 0.0 μmol of QE/100 μmol | – | CAA value (HepG2 cells; PBS wash): 22.2 ± 1 µmol QE/100 µmol; CAA value (HepG2 cells; no PBS wash): 22.6±0.2 μmol QE/100 μmol
4 | O=c1c(O)c(-c2cc(O)c(O)c(O)c2)oc2cc(O)cc(O)c12 [Myricetin, myricetin] | 70.7 ± 4.2 | 31.1 ± 1 | 15.4 ± 0.5 | 16.1 ± 1.7 | 4.55±0.50 μmol of TE/μmol and 4.55 ± 0.50 fgh μmol of TE/μmol | 11.5 ± 0.7 μmol of QE/100 μmol | 28.4 ± 0.9 μmol of QE/100 μmol | – | CAA value (HepG2 cells; PBS wash): 33.1 ± 1 µmol QE/100 µmol; CAA value (HepG2 cells; no PBS wash): 36.8±3.8 μmol QE/100 μmol; EC50 (HepG2 cells; Homo sapiens, HepG2, Example 3, text, no PBS wash, read-out: EC50): 31.1 ± 1 µM
5 | O=c1c(O[C@@H]2O[C@H](CO)[C@@H](O)[C@H](O)[C@H]2O)c(-c2ccc(O)c(O)c2)oc2cc(O)cc(O)c12 [Q-3-G, quercetin-3-β-D-glucoside] | – | – | – | – | 8.11 ± 1.86 cde μmol of TE/μmol | 6.6 ± 0.1 μmol of QE/100 μmol | 7.7 ± 0.1 μmol of QE/100 μmol | low amount of activity; also recorded: low or no cellular antioxidant activity | EC50 (HepG2 cells; Example 3, Table 7, PBS wash, flavonoids, mean ± SD, n=3, read-out: EC50): 122 ± 1 µM; EC50 (HepG2 cells; Example 3, Table 7, no PBS wash, flavonoids, mean ± SD, n=3, read-out: EC50): 115 ± 2 µM
6 | O=C1c2c(O)cc(O)cc2O[C@H](c2ccc(O)c(O)c2)[C@H]1O [Taxifolin, taxifolin] | > 200 | > 200 | > 150 | > 150 | 9.74 ± 1.20 bcd μmol of TE/μmol | – | – | low or no cellular antioxidant activity; also recorded: low CAA | cellular antioxidant activity, result in words (HepG2 cells; PBS wash protocol): low activity at the concentrations tested; cellular antioxidant activity, result in words (HepG2 cells; no PBS wash protocol): activity only at doses much higher than their cytotoxic concentrations; also recorded: low, but unquantifiable, activity; also recorded: low but unquantifiable activity
7 | O=c1c(-c2ccc(O)cc2)coc2cc(O)cc(O)c12 [genistein] | – | – | – | – | 13.4±2.8 μmol of TE/μmol and 13.4 ± 2.8 a μmol of TE/μmol | – | – | no cellular antioxidant activity; also recorded: no CAA | cellular antioxidant activity, result in words (HepG2 cells; CAA assay, either protocol or protocol not specified, listed as Genistein): no activity; EC50 (HepG2 cells; [8]): no activity; EC50 (HepG2 cells; [9]): no activity
8 | O=C1C[C@@H](c2ccc(O)cc2)Oc2cc(O)cc(O)c21 [naringenin] | – | – | – | – | 9.23 ± 2.79 bcd μmol of TE/μmol | – | – | no activity; also recorded: no CAA | EC50 (HepG2 cells; [8]): no activity; EC50 (HepG2 cells; [9]): no activity; cellular antioxidant activity, result in words (HepG2 cells; no PBS wash protocol): none

The next lines start with results.

Row | EC50 (HepG2 cells; [3]) [µM] | EC50 (HepG2 cells; [4]) [µM] | EC50 (HepG2 cells; [5]) [µM] | EC50 (HepG2 cells; [6]) [µM] | SMILES | ORAC [1] | CAA (HepG2 cells; Example 3, Table 7, PBS wash) | CAA (HepG2 cells; [2]) | cellular antioxidant activity, result in words (HepG2 cells; [7]) | other results
9 | 9.57 ± 0.27 | 11.9 ± 0.8 | 6.31 ± 0.21 | 7.85 ± 0.51 | O=c1c(O)c(-c2ccc(O)cc2)oc2cc(O)cc(O)c12 [Kaempferol, kaempferol] | 7.19 ± 1.29 def μmol of TE/μmol | 85.1 ± 2.4 μmol of QE/100 μmol | 74.6 ± 4.8 μmol of QE/100 μmol | – | CAA value (HepG2 cells; PBS wash): 81.1 ± 2.7 µmol QE/100 µmol; CAA value (HepG2 cells; no PBS wash): 75.3±4.7 μmol QE/100 μmol
10 | 7.71 ± 0.26 | 8.93 ± 0.44 | – | 5.92 ± 0.07 | O=c1c(O)c(-c2ccc(O)c(O)c2)oc2cc(O)cc(O)c12 [Quercetin, quercetin] | 8.04 ± 2.37 cde μmol of TE/μmol | 105.7 ± 3.7 μmol of QE/100 μmol | 99.1 ± 4.8 μmol of QE/100 μmol | – | EC50 (HepG2 cells; Example 1, Table 1, PBS wash, pure phytochemical compounds, mean ± SD, n=3, read-out: EC50 for inhibition of peroxyl radical-induced DCFH oxidation): 5.09 ± 0.19 µM; EC50 (HepG2 cells; Homo sapiens, HepG2, Table 2, no PBS wash, mean ± SD over the trials, read-out: Interexperimental EC50): 5.89 ± 0.36 µM; EC50 (HepG2 cells; Homo sapiens, HepG2, Table 2, no PBS wash, one line per trial (trials 1-5), n=3, read-out: Intraexperimental EC50): 6.07 ± 0.25 µM; EC50 (HepG2 cells; Homo sapiens, HepG2, Table 3, PBS wash, mean ± SD over the trials, read-out: Interexperimental EC50): 5.12 ± 0.58 µM; EC50 (HepG2 cells; Homo sapiens, HepG2, Table 3, PBS wash, one line per trial (trials 1-5), n=3, read-out: Intraexperimental EC50): 4.48 ± 0.18 µM
11 | 7.56 ± 0.46 | 13.3 ± 0.2 | – | – | O=c1c(O)c(-c2ccccc2)oc2cc(O)cc(O)c12 [galangin] | 2.63 ± 1.31 gh μmol of TE/μmol | 107.8 ± 6.4 μmol of QE/100 μmol | 66.3 ± 1.1 μmol of QE/100 μmol | – | ORAC ([1]; listed as Galangin): 2.63±1.31 μmol of TE/μmol
12 | 43.9 ± 4.3 | 27.6 ± 1.8 | – | – | O=c1c(O)c(-c2ccc(O)cc2O)oc2cc(O)cc(O)c12 [morin] | 6.12±1.95 μmol of TE/μmol and 6.12 ± 1.95 efg μmol of TE/μmol | 18.6 ± 18 μmol of QE/100 μmol | 32.1 ± 2.1 μmol of QE/100 μmol | – | EC50 (HepG2 cells; Homo sapiens, HepG2, Example 3, text b252, PBS wash, read-out: EC50): 43.9 ± 0.43 µM; EC50 (HepG2 cells; Homo sapiens, HepG2, Example 3, text b252, no PBS wash, read-out: EC50): 27.6 ± 1.8 µM
